Experimental data reported in patent US20260085292A1, “MINIMAL ESSENTIAL MEDIA FOR THE CULTURE OF HUMAN INDUCED PLURIPOTENT STEM CELLS” (Northwestern University, priority 2022, published 2026).
Counter-ions that a name gives are not always drawn. Like-named read-outs stand apart in the source and are kept apart here. Where a SMILES comes first, the peptide text is derived from it.

Experiments:
[1] = system: hiPSC lines (19c3 and 23c1); assay: hiPSC growth titration assay: 1-5 passages in 12-well plates, then resazurin viability assay; conditions: for concentration required to maintain similar levels of proliferation: three-passage assay
Text: Each commercial medium was normalized to the DMEM/F12 levels of L-glutamine, D-glucose, sodium pyruvate, sodium bicarbonate, pH, and osmolarity (FIG. 1B). To assess the effect of basal medium on hiPSC growth, an assay was developed consisting of plating cells in 12-well plates, and growing cells for 4 days with daily medium changes, before passaging at a 1:20 ratio. This was completed for 1-5 passages followed by a cost-effective resazurin viability assay (FIG. 1C). […] This was chosen to minimize the effect of variance caused by repeated manual passaging and replating. At least two hiPSC lines were used in parallel throughout the titration process. Identified adjusted concentrations of each group, such as amino acids, was incorporated prior to beginning the next group, such as vitamins, to bring subsequent titrations as close to final formulation as possible. Once the initial full cycle of titration of all components was complete, a second full cycle of was performed to confirm the results in the final formulation. We also completed identical experiments without daily medium change to identify components and concentrations that support this protocol (FIGS. 3, 5, and 8), and to allow for development of a simplified hiPSC culture strategy.
(§1) Human induced pluripotent cell culture: BMEM consists of BMEM basal medium and BMEM supplement. […] These are added to ultrapure water and filter sterilized. BMEM supplement consists of 5 mg/mL E. coli-derived recombinant human insulin (Gibco), […] L-ascorbic acid 2-phosphate trisodium salt (AA2P, Wako), 5 mg/mL Oryza sat-iva-derived recombinant human transferrin (Optiferrin, InVitria), 20 ng/mL sodium selenite (Sigma), 40 ng/mL recombinant human FGF2-G3 (made in-house), 0.1 ng/mL recombinant human TGFb3 (E. coli-derived, Qkine), 0.1 ng/mL recombinant human NRG1 (E. coli-derived, Shenodoah Biotechnology). Cells were routinely maintained in this medium on 1:800 diluted growth factor reduced Matrigel (Corning) diluted in a BMEM basal at 2 mL per well of a 6-well plate or equivalent. Matrigel-coated plates were kept in CO2 incubators at 37° C. for up to 1 month. BMEM was supplemented with […] thiazovivin (LC Labs), hereafter referred to as BMEM-T, for the first 24 h after passage. For standard culture, cells were passaged at a ratio of 1:20 every 4 days using 0.5 mM EDTA (Invitrogen) diluted in DPBS^−/− (without Ca^2+ and Mg^2+, Corning), after achieving ˜70%-80% confluence. Cell lines were used between passages 20 and 100. Throughout, pH was adjusted immediately after making the medium at room temperature and atmospheric oxygen and carbon dioxide levels but before filter sterilization. pH was adjusted with 12 N HCl or 1 N NaOH (both from Fisher) and measured using a SevenCompact pH meter (MettlerToledo). Osmolarity was measured using an osmometer (Advanced Instruments).
Resazurin assay: Resazurin sodium salt (B21187.06, Thermo) was diluted to 5 mg/mL in sterile Milli-Q ultrapure water and 600 μL aliquots were made and stored at −20° C. One aliquot was added to 14.4 mL of water to generate a 10× stock. Stock was diluted in BMEM to 1×, and 1 mL was added to each well of a 12-well plate and incubated at 37° C. for 2.5 h. Plates were read on a Varioskan Lux (Thermo) in fluorescent mode using top read and an excitation wavelength of 560 nm and an emission wavelength of 590 nm.

[2] = 110 mM NaCl
Protocol: as §1, with “For standard culture, cells were passaged at a ratio of 1:20 every 4 days using 0.5 mM EDTA (Invitrogen) diluted in DPBS^−/− (without Ca^2+ and Mg^2+, Corning), after achieving ˜70%-80% confluence. Cell lines were used between passages 20 and 100.” left out

[3] = daily medium change, multi-passage assay, normalized to DMEM/F12

| Compound | requirement of the component for hiPSC growth [1, 3] | suitable concentration compared with that in DMEM/F12 ([1]; titration, daily medium change) | further results |
| --- | --- | --- | --- |
| CCCCC/C=C\C/C=C\CCCCCCCC(=O)O [linoleic acid, Linoleic acid] | superfluous |  |  |
| CC(=O)C(=O)[O-].[Na+] [Sodium pyruvate] | essential | slightly higher concentration |  |
| N[C@@H](Cc1c[nH]c2ccccc12)C(=O)O [tryptophan, L-Tryptophan] |  |  | suitable concentration relative to that in DMEM/F12 ([1]; titration, two-passage assay): ~4 fold |
| O.O=P([O-])(O)O.[Na+] [sodium phosphate monobasic, Sodium phosphate monobasic monohydrate (NaH2PO4•H2O)] | superfluous |  | concentration at which essential ([1]; no medium change assay): around 2 mM |
| C[C@@H](O)[C@H](N)C(=O)O [threonine, L-Threonine] |  | approximately suitable |  |
| O=S(=O)(O)CCN1CCN(CCO)CC1 [HEPES] | superfluous |  | requirement of the component for hiPSC growth ([1]; no medium change): superfluous |
| Cc1ncc(C[n+]2csc(CCO)c2C)c(N)n1 [thiamine, Thiamine hydrochloride (B1)] | superfluous |  | requirement of the component for hiPSC growth ([1]; normoxic conditions (21% O2)): required |
| O=C(O)CCCC[C@@H]1SC[C@@H]2NC(=O)N[C@@H]21 [biotin, Biotin (B7)] |  | sufficient at concentrations lower than those in DMEM/F12 |  |
| Cl.NCCCC[C@H](N)C(=O)O [lysine, L-Lysine HCl] |  | approximately suitable |  |
| C[C@H](N)C(=O)N[C@@H](CCC(N)=O)C(=O)O [L-alanyl-L-glutamine] (H-Ala-Gln-OH) |  |  | hiPSC growth rate compared with glutamine at the suitable concentrations ([1]; 2 mM vs 1 mM glutamine, also with no medium change): no difference; concentration required to maintain similar levels of proliferation [1]: 2 mM |
| NC(=O)c1cccnc1 [nicotinamide, Nicotinamide (B3)] |  | sufficient at concentrations lower than those in DMEM/F12 |  |
| Cc1cn([C@H]2C[C@H](O)[C@@H](CO)O2)c(=O)[nH]c1=O [thymidine, Thymidine] | superfluous |  |  |
| O=S(=O)([O-])[O-].[Mg+2] [MgSO4, Magnesium sulfate (MgSO4)] |  | enhanced growth |  |
| Cc1cc2nc3c(=O)[nH]c(=O)nc-3n(C[C@H](O)[C@H](O)[C@H](O)CO)c2cc1C [riboflavin, Riboflavin (B2)] |  | sufficient at concentrations lower than those in DMEM/F12 |  |
| O.O.O.O.O.O.O.O=S(=O)([O-])[O-].[Zn+2] [Zinc, Zinc sulfate heptahydrate (ZnSO4•7H2O)] | not shown to be essential |  | improvement of hiPSC growth ([1]; two-passage assay): approximately 10% |
| [Cl-].[K+] [KCl, Potassium chloride (KCl)] |  | could be reduced |  |
| Cc1ncc(CO)c(CO)c1O [pyridoxine, Pyridoxine hydrochloride (B6)] |  | sufficient at concentrations lower than those in DMEM/F12 |  |
| O.O.O.O.O.O.O.O=S(=O)([O-])[O-].[Fe+2] [iron sulfate, Iron(II) sulfate heptahydrate (FeSO4•7H2O)] |  |  | toxicity to hiPSCs [1]: toxic at high concentrations |
| O.O.O.O.O.O=S(=O)([O-])[O-].[Cu+2] [copper, Copper(II) sulfate pentahydrate (CuSO4•5H2O)] | No advantage |  | concentration at which toxic to hiPSCs [1]: > 100 µM |

| Compound | requirement of the component for hiPSC growth [1, 3] | suitable concentration compared with that in DMEM/F12 ([1]; titration, daily medium change) | further results |
| --- | --- | --- | --- |
| O=C([O-])O.[Na+] [sodium bicarbonate, Sodium bicarbonate (NaHCO3)] |  |  | concentration most suitable for hiPSC growth ([1]; pH normalized to 7.1): 22.5 mM |
| NCC(=O)O [glycine, Glycine] |  |  | requirement of the component for hiPSC growth ([1]; no medium change): superfluous |
| [Cl-].[Na+] [NaCl, Sodium chloride (NaCl)] |  |  | osmolarity produced [2]: 295 mOsm/L; concentration suitable for hiPSC growth ([1]; NaCl titration in the presence of sodium bicarbonate, two-passage assay): 110 mM |
| [Ca+2].[Cl-].[Cl-] [CaCl2, Calcium chloride (CaCl2)] |  | could be reduced | effect of low concentrations on hiPSCs ([1]; two-passage titration): reduced the adhesion of hiPSCs to the plates |
| O=C(O)CCCC[C@@H]1CCSS1 (racemic) [lipoic acid, Lipoic acid] | superfluous |  |  |
| NC(=O)CC[C@H](N)C(=O)O [glutamine, L-Glutamine] |  | suitable at lower concentrations | concentration required to maintain similar levels of proliferation [1]: 1 mM |
| O[C@H]1[C@H](O)[C@@H](O)[C@H](O)[C@@H](O)[C@H]1O [myoinositol, myo-Inositol] |  | higher concentrations |  |
| Iron | essential |  |  |
| CSCC[C@H](N)C(=O)O [methionine, L-Methionine] |  | approximately suitable |  |
| CC(C)(CO)[C@@H](O)C(=O)NCCC(=O)[O-].CC(C)(CO)[C@@H](O)C(=O)NCCC(=O)[O-].[Ca+2] [D-pantothenic acid, D-Pantothenic acid hemicalcium salt (B5)] |  | higher concentrations |  |
| N[C@@H](CS)C(=O)O [cysteine, L-Cysteine HCl•H2O] | can replace the cystine and cysteine combination |  |  |
| N[C@@H](Cc1c[nH]cn1)C(=O)O [histidine, L-Histidine HCl•H2O] |  | approximately suitable |  |
| CC(C)C[C@H](N)C(=O)O [leucine, L-Leucine] |  | approximately suitable |  |
| Nc1nc(=O)c2nc(CNc3ccc(C(=O)N[C@@H](CCC(=O)O)C(=O)O)cc3)cnc2[nH]1 [folic acid, Folic acid (B9)] |  | sufficient at concentrations lower than those in DMEM/F12 |  |
| O.O.O.O.O.O.O.O.O.O=[N+]([O-])[O-].O=[N+]([O-])[O-].O=[N+]([O-])[O-].[Fe+3] [iron nitrate, Iron(III) nitrate nonahydrate (Fe(NO3)3•9H2O)] |  |  | toxicity to hiPSCs ([1]; concentration titration, two-passage assay): toxic at high concentrations |
| N[C@@H](Cc1ccc(O)cc1)C(=O)O [tyrosine, L-Tyrosine disodium salt hydrate] |  | approximately suitable |  |
| O=c1[nH]cnc2nc[nH]c12 [hypoxanthine, Hypoxanthine] | superfluous |  |  |
| Cl.Cl.NCCCCN [putrescine, Putrescine dihydrochloride] | superfluous |  |  |
